# Data published in ChEMBL document CHEMBL1122716, “cis-1,3,4,6,7,11b-Hexahydro-2-methyl-7-phenyl-2H-pyrazino[2,1-a] isoquinoline: a new atypical antidepressant” (J Med Chem, 1984).
# Assay: Binding affinity towards histamine receptor by inhibiting specific binding of [3H]-mepyramine (3 nM) in vitro to membranes of rat brain without cerebellum
# Format: cell membranes
row,Structure (SMILES),IC50 [nM]
1,CN1CCN2CC(c3ccccc3)c3ccccc3C2C1 (trans isomer),> 10000
2,c1ccc(C2CN3CCNCC3c3ccccc32)cc1 (centres undefined),> 10000
3,CCNCC1NCC(c2ccccc2)c2ccccc21 (cis isomer),5000
4,COc1ccc(C2CN3CCN(C)CC3c3ccccc32)cc1 (centres undefined),680
5,CNCC1NCC(c2ccccc2)c2ccccc21 (stereo in doubt; 5),170
6,CN(C)CC1NCC(c2ccccc2)c2ccccc21 (centres undefined),2000
7,CN1CCN2CC(c3ccc([N+](=O)[O-])cc3)c3ccccc3C2C1 (cis isomer),520
8,CN1CCN2CC(c3ccc(N)cc3)c3ccccc3C2C1 (cis isomer),860
9,CCN1CCN2CC(c3ccccc3)c3ccccc3C2C1 (centres undefined),280
10,c1ccc(CN2CCN3CC(c4ccccc4)c4ccccc4C3C2)cc1 (centres undefined),> 10000
11,CN1CCN2CC(c3ccc(Cl)cc3)c3ccccc3C2C1 (centres undefined),380
12,CN1CCN2CC(c3ccccc3)c3ccccc3C2C1 (stereo in doubt; 10),2800
13,CN1CCN2CC(c3ccccc3)c3ccccc3C2C1 (stereo in doubt; 7a),60
14,CN(C)CC1c2ccccc2C(c2ccccc2)CN1C (cis isomer),> 10000
15,CCCCCCN1CCN2CC(c3ccccc3)c3ccccc3C2C1 (centres undefined),> 10000
16,CN1CCN2c3ccccc3Cc3ccccc3C2C1 (centres undefined) [MIANSERIN],14
17,CN(C)CCCN1c2ccccc2CCc2ccccc21 [IMIPRAMINE],30
18,c1ccc(CCN2CCN3CC(c4ccccc4)c4ccccc4C3C2)cc1 (centres undefined),> 10000
19,CN1CCN2CC(c3ccc(O)cc3)c3ccccc3C2C1 (centres undefined),190
20,"CN1CCN2CC(c3ccccc3)c3ccccc3C2C1 (single isomer, unassigned; (-))",40
21,CCCN1CCN2CC(c3ccccc3)c3ccccc3C2C1 (cis isomer),> 10000
22,CCCCN1CCN2CC(c3ccccc3)c3ccccc3C2C1 (cis isomer),> 10000
23,CN1CCN2CC(c3ccc([N+](=O)[O-])cc3)c3ccc([N+](=O)[O-])cc3C2C1 (cis isomer),> 10000
24,CNCC1NCC(c2ccccc2)c2ccccc21 (stereo in doubt; 4a),3500
